Measurements as given in ChEMBL document CHEMBL3885861, “Open TG-GATES”.

Species on record: Rattus norvegicus
Experiment: Open TG-GATES - Regimen: Daily Repeat
Type: toxicity, organism-based, Sprague-Dawley
Design: regimen Daily Repeat, gender Male, age 6 weeks
Details: in vivo, po, 60 mg/kg, route gavage, dose level High; for APTT / Bas / Eos / Fbg / Hb / Ht / Lym / MCH / MCHC / MCV / Mono / Neu / PT / Plat / RBC / Ret / WBC: tissue Blood; for KIDNEY_L / KIDNEY_R / KIDNEY_TOTAL: tissue Kidney; for LIVER: tissue Liver; for A/G / ALP / ALT / AST / BUN / CRE / Ca / Cl / DBIL / GLC / IP / K / LDH / Na / PL / RALB / TBIL / TC / TG / TP / gamma-GTP: tissue Plasma

CC(C)NNC(=O)c1ccncc1 [IPRONIAZID]
TERMINAL_BW (72 h, time 3 day): 184.6 g
APTT (72 h, time 3 day): 22.8 s
Bas (72 h, time 3 day): 0%
Eos (72 h, time 3 day): 0.8%
Fbg (72 h, time 3 day): 317.4 mg/dL
Hb (72 h, time 3 day): 13.1 g/dL
Ht (72 h, time 3 day): 38.2%
Lym (72 h, time 3 day): 86.2%
MCH (72 h, time 3 day): 20.5 pg
MCHC (72 h, time 3 day): 34.4%
MCV (72 h, time 3 day): 59.6 fL
Mono (72 h, time 3 day): 1.6%
Neu (72 h, time 3 day): 10.8%
PT (72 h, time 3 day): 16.9 s
Plat (72 h, time 3 day): 145 x10_4/uL
RBC (72 h, time 3 day): 640.8 x10_4/ul
Ret (72 h, time 3 day): 5.5%
WBC (72 h, time 3 day): 90.9 x10_2/uL
KIDNEY_L (72 h, time 3 day): 0.9 g
KIDNEY_R (72 h, time 3 day): 0.9 g
KIDNEY_TOTAL (72 h, time 3 day): 1.7 g
LIVER (72 h, time 3 day): 8.1 g
A/G (72 h, time 3 day): 1.2
ALP (72 h, time 3 day): 1455.4 IU/L
ALT (72 h, time 3 day): 34 IU/L
AST (72 h, time 3 day): 78.2 IU/L
BUN (72 h, time 3 day): 20.4 mg/dL
CRE (72 h, time 3 day): 0.2 mg/dL
Ca (72 h, time 3 day): 10.2 mg/dL
Cl (72 h, time 3 day): 108.2 meq/L
DBIL (72 h, time 3 day): 0.002 mg/dL
GLC (72 h, time 3 day): 175.4 mg/dL
IP (72 h, time 3 day): 7.2 mg/dL
K (72 h, time 3 day): 4.2 meq/L
LDH (72 h, time 3 day): 305.2 IU/L
Na (72 h, time 3 day): 143.4 meq/L
PL (72 h, time 3 day): 149.6 mg/dL
RALB (72 h, time 3 day): 3.2 g/dL
TBIL (72 h, time 3 day): 0.04 mg/dL
TC (72 h, time 3 day): 89.6 mg/dL
TG (72 h, time 3 day): 61.2 mg/dL
TP (72 h, time 3 day): 5.8 g/dL
gamma-GTP (72 h, time 3 day): 1.2 IU/L
TERMINAL_BW ([…], time 7 day): 201.3 g
TERMINAL_BW ([…], time 14 day): 239 g
TERMINAL_BW ([…], time 28 day): 299.7 g
APTT ([…], time 7 day): 21.6 s
Bas ([…], time 7 day): 0%
Eos ([…], time 7 day): 1%
Fbg ([…], time 7 day): 275.8 mg/dL
Hb ([…], time 7 day): 11.7 g/dL
Ht ([…], time 7 day): 33.9%
Lym ([…], time 7 day): 77.2%
MCH ([…], time 7 day): 20.4 pg
MCHC ([…], time 7 day): 34.4%
MCV ([…], time 7 day): 59.3 fL
Mono ([…], time 7 day): 2.2%
Neu ([…], time 7 day): 19%
PT ([…], time 7 day): 16.3 s
Plat ([…], time 7 day): 121.7 x10_4/uL
RBC ([…], time 7 day): 571.6 x10_4/ul
Ret ([…], time 7 day): 7.4%
WBC ([…], time 7 day): 126.5 x10_2/uL
APTT ([…], time 14 day): 21.3 s
Bas ([…], time 14 day): 0%
Eos ([…], time 14 day): 1%
Fbg ([…], time 14 day): 302.2 mg/dL
Hb ([…], time 14 day): 11.4 g/dL
Ht ([…], time 14 day): 35.7%
Lym ([…], time 14 day): 78%
MCH ([…], time 14 day): 22.2 pg
MCHC ([…], time 14 day): 31.8%
MCV ([…], time 14 day): 69.8 fL
Mono ([…], time 14 day): 2%
Neu ([…], time 14 day): 18.4%
PT ([…], time 14 day): 16.5 s
Plat ([…], time 14 day): 115.4 x10_4/uL
RBC ([…], time 14 day): 511.4 x10_4/ul
Ret ([…], time 14 day): 19.5%
WBC ([…], time 14 day): 131.9 x10_2/uL
APTT ([…], time 28 day): 21.5 s
Bas ([…], time 28 day): 0%
Eos ([…], time 28 day): 0.8%
Fbg ([…], time 28 day): 352.8 mg/dL
Hb ([…], time 28 day): 11.9 g/dL
Ht ([…], time 28 day): 35%
Lym ([…], time 28 day): 77%
MCH ([…], time 28 day): 21.6 pg
MCHC ([…], time 28 day): 33.9%
MCV ([…], time 28 day): 63.7 fL
Mono ([…], time 28 day): 2.2%
Neu ([…], time 28 day): 18.8%
PT ([…], time 28 day): 16.9 s
Plat ([…], time 28 day): 108.7 x10_4/uL
RBC ([…], time 28 day): 550.2 x10_4/ul
Ret ([…], time 28 day): 12.4%
WBC ([…], time 28 day): 121.5 x10_2/uL
KIDNEY_L ([…], time 7 day): 1 g
KIDNEY_R ([…], time 7 day): 0.9 g
KIDNEY_TOTAL ([…], time 7 day): 1.9 g
KIDNEY_L ([…], time 14 day): 1 g
KIDNEY_R ([…], time 14 day): 1 g
KIDNEY_TOTAL ([…], time 14 day): 2.1 g
KIDNEY_L ([…], time 28 day): 1.2 g
KIDNEY_R ([…], time 28 day): 1.2 g
KIDNEY_TOTAL ([…], time 28 day): 2.4 g
LIVER ([…], time 7 day): 8.5 g
LIVER ([…], time 14 day): 10.1 g
LIVER ([…], time 28 day): 11.8 g
A/G ([…], time 7 day): 1.2
ALP ([…], time 7 day): 1212.6 IU/L
ALT ([…], time 7 day): 34.4 IU/L
AST ([…], time 7 day): 82 IU/L
BUN ([…], time 7 day): 22.2 mg/dL
CRE ([…], time 7 day): 0.2 mg/dL
Ca ([…], time 7 day): 10.1 mg/dL
Cl ([…], time 7 day): 108 meq/L
DBIL ([…], time 7 day): 0.024 mg/dL
GLC ([…], time 7 day): 180.6 mg/dL
IP ([…], time 7 day): 7 mg/dL
K ([…], time 7 day): 4 meq/L
LDH ([…], time 7 day): 241.4 IU/L
Na ([…], time 7 day): 142.8 meq/L
PL ([…], time 7 day): 151.6 mg/dL
RALB ([…], time 7 day): 3.1 g/dL
TBIL ([…], time 7 day): 0.086 mg/dL
TC ([…], time 7 day): 85.8 mg/dL
TG ([…], time 7 day): 55.2 mg/dL
TP ([…], time 7 day): 5.6 g/dL
gamma-GTP ([…], time 7 day): 1.6 IU/L
A/G ([…], time 14 day): 1.2
ALP ([…], time 14 day): 1104 IU/L
ALT ([…], time 14 day): 41 IU/L
AST ([…], time 14 day): 79 IU/L
BUN ([…], time 14 day): 19.6 mg/dL
CRE ([…], time 14 day): 0.2 mg/dL
Ca ([…], time 14 day): 10 mg/dL
Cl ([…], time 14 day): 106.8 meq/L
DBIL ([…], time 14 day): 0.01 mg/dL
GLC ([…], time 14 day): 174 mg/dL
IP ([…], time 14 day): 7 mg/dL
K ([…], time 14 day): 4.1 meq/L
LDH ([…], time 14 day): 201.2 IU/L
Na ([…], time 14 day): 141.4 meq/L
PL ([…], time 14 day): 165.8 mg/dL
RALB ([…], time 14 day): 3 g/dL
TBIL ([…], time 14 day): 0.058 mg/dL
TC ([…], time 14 day): 92.4 mg/dL
TG ([…], time 14 day): 82.8 mg/dL
TP ([…], time 14 day): 5.6 g/dL
gamma-GTP ([…], time 14 day): 1.8 IU/L
A/G ([…], time 28 day): 1.1
ALP ([…], time 28 day): 1056.8 IU/L
ALT ([…], time 28 day): 25 IU/L
AST ([…], time 28 day): 66.8 IU/L
BUN ([…], time 28 day): 18.6 mg/dL
CRE ([…], time 28 day): 0.2 mg/dL
Ca ([…], time 28 day): 10.2 mg/dL
Cl ([…], time 28 day): 105.8 meq/L
DBIL ([…], time 28 day): 0.004 mg/dL
GLC ([…], time 28 day): 182 mg/dL
IP ([…], time 28 day): 6.6 mg/dL
K ([…], time 28 day): 4.1 meq/L
LDH ([…], time 28 day): 156.6 IU/L
Na ([…], time 28 day): 141.8 meq/L
PL ([…], time 28 day): 149.6 mg/dL
RALB ([…], time 28 day): 3.1 g/dL
TBIL ([…], time 28 day): 0.09 mg/dL
TC ([…], time 28 day): 87 mg/dL
TG ([…], time 28 day): 76.6 mg/dL
TP ([…], time 28 day): 6 g/dL
gamma-GTP ([…], time 28 day): 2.4 IU/L
